Source: patent US9376380B2 (University of Pittsburgh—Of the Commonwealth System of …, priority 2011, dated 2016)
Read-outs that look alike come from different tables or passages of the source.

Target: CB2 receptor (Homo sapiens, UniProt P34972)
Test: [3H]CP-55,940 radioligand competition binding, CB2
Parameters: host or cells: cell membrane preparations
Settings: for SI: selectivity index for CB2: Ki(CB1)/Ki(CB2) ratio
[1] = [3H]CP-55,940 displacement, read-out: Ki (CB2)

Chain of CB2 receptor (P34972 whole entry): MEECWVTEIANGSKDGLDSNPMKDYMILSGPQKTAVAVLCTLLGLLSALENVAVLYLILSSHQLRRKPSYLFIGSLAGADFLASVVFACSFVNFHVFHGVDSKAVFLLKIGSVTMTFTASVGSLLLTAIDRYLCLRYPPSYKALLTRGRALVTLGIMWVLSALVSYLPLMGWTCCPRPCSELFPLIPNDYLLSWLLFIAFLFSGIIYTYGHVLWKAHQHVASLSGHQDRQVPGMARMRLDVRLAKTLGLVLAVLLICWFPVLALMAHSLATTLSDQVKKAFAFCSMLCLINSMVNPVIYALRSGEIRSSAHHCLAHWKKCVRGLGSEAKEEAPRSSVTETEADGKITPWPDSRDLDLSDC

SI: selectivity index for CB2	Ki [1] [µM]	SMILES	Ki [µM]
>34	0.595	O=C(Cc1ccccc1)NC(NC(=O)Cc1ccccc1)c1ccc(N2CCCCC2)cc1 [Compound 19, N,N′-((4-(piperidin-1-yl)phenyl)methylene)bis(2-phenylacetamide)]	
		CCN(CC)c1ccc(CN(C23CC4CC(CC(C4)C2)C3)S(=O)(=O)c2ccc(C(C)C)cc2)cc1 [Compound 62, N-((3s,5s,7s)-Adamantan-1-yl)-N-(4-(diethylamino)benzyl)-4-isopropylbenzenesulfonamide]	0.457
	10.8	O=C(Cc1ccc(Cl)cc1)NC(NC(=O)Cc1ccc(Cl)cc1)c1ccccc1F [Compound 22, N,N′-((2-fluorophenyl)methylene)bis(2-(4-chlorophenyl)acetamide)]	
130	20	CCN(CC)c1ccc(CNC23CC4CC(CC(C4)C2)C3)cc1 [B, (3s,5s,7s)-N-(4-(Diethylamino)benzyl)adamantan-1-amine]	
>130	0.154	O=C(Cc1ccc(Cl)cc1)NC(NC(=O)Cc1ccc(Cl)cc1)c1ccc(Cl)cc1 [Compound 24, N,N′-((4-chlorophenyl)methylene)bis(2-(4-chlorophenyl)acetamide)]	
	> 20	O=C(Cc1ccc(C(F)(F)F)cc1)NC(NC(=O)Cc1ccc(C(F)(F)F)cc1)c1ccc(Cl)cc1 [Compound 33, N,N′-((4-chlorophenyl)methylene)bis(2-(4-(trifluoromethyl)phenyl)acetamide)]	
>65	0.31	COc1ccc(C(NC(=O)Cc2ccc(Cl)cc2)NC(=O)Cc2ccc(Cl)cc2)cc1 [Compound 26, N,N′-((4-methoxyphenyl)methylene)bis(2-(4-chlorophenyl)acetamide)]	
>109	0.182	CCCCC(=O)NC(NC(=O)CCCC)c1ccc(N(CC)CC)cc1 [Compound 52, N,N′-((4-(diethylamino)phenyl)methylene)dipentanamide]	
	0.212	CCCCCCCN(Cc1ccc(N(CC)CC)cc1)C(=O)C1CCCCC1 [Compound 79, N-(4-(Diethylamino)benzyl)-N-heptylcyclohexanecarboxamide]	
	> 20	Cc1ccc(C(NC(=O)Cc2ccc(C(F)(F)F)cc2)NC(=O)Cc2ccc(C(F)(F)F)cc2)cc1 [Compound 34, N,N′-(p-tolylmethylene)bis(2-(4-(trifluoromethyl)phenyl)acetamide)]	
>26	0.783	COc1ccc(C(NC(=O)Cc2ccccc2)NC(=O)Cc2ccccc2)cc1 [Compound 10, N,N′-((4-methoxyphenyl)methylene)bis(2-phenylacetamide)]	
	> 20	O=C(Cc1ccc(Cl)cc1)NC(NC(=O)Cc1ccc(Cl)cc1)c1ccc([N+](=O)[O-])cc1 [Compound 29, N,N′-((4-nitrophenyl)methylene)bis(2-(4-chlorophenyl)acetamide)]	
	2.3	CCCCCCCN(Cc1ccc(N(CC)CC)cc1)S(=O)(=O)c1cccc(C)c1 [Compound 68, N-(4-(Diethylamino)benzyl)-N-heptyl-3-methylbenzenesulfonamide]	
	5.68	O=C(Cc1ccccc1)NC(/C=C/c1ccccc1)NC(=O)Cc1ccccc1 [Compound 39, (E)-N,N′-(3-phenylprop-2-ene-1,1-diyl)bis(2-phenylacetamide)]	
	> 20	CCCCCCCN(Cc1ccc(N(CC)CC)cc1)S(=O)(=O)c1ccc(OC(C)C)cc1 [Compound 71, N-(4-(Diethylamino)benzyl)-N-heptyl-4-isopropoxybenzenesulfonamide]	
>90	0.221	CCCCN(CCCC)c1ccc(C(NC(=O)Cc2ccccc2)NC(=O)Cc2ccccc2)cc1 [Compound 18, N,N′-((4-(dibutylamino)phenyl)methylene)bis(2-phenylacetamide)]	
	0.638	CCCCCCCC(=O)N(Cc1ccc(N(CC)CC)cc1)C12CC3CC(CC(C3)C1)C2 [Compound 64, N-((3s,5s,7s)-Adamantan-1-yl)-N-(4-(diethylamino)benzyl)octanamide]	
	3.08	O=C(Cc1ccccc1)NC(NC(=O)Cc1ccccc1)c1ccc(Cl)cc1 [Compound 6, N,N′-((4-chlorophenyl)methylene)bis(2-phenylacetamide)]	

SI: selectivity index for CB2	Ki [1] [µM]	SMILES	Ki [µM]
>29	0.688	CCN(CC)c1ccc(C(NC(=O)c2ccccc2)NC(=O)c2ccccc2)cc1 [Compound 49, N,N′-((4-(Diethylamino)phenyl)methylene)dibenzamide]	
	> 20	O=C(Cc1ccc(C(F)(F)F)cc1)NC(NC(=O)Cc1ccc(C(F)(F)F)cc1)c1ccc(F)cc1 [Compound 32, N,N′-((4-fluorophenyl)methylene)bis(2-(4-(trifluoromethyl)phenyl)acetamide)]	
	> 20	COc1ccc(C(NC(=O)Cc2ccc(C(F)(F)F)cc2)NC(=O)Cc2ccc(C(F)(F)F)cc2)cc1 [Compound 35, N,N′-((4-methoxyphenyl)methylene)bis(2-(4-(trifluoromethyl)phenyl)acetamide)]	
	1.1	CCCCCCCN(Cc1ccc(N(CC)CC)cc1)S(=O)(=O)c1ccc(F)cc1 [Compound 72, N-(4-(Diethylamino)benzyl)-4-fluoro-N-heptylbenzenesulfonamide]	
>800	0.025	CCCCCC(=O)NC(NC(=O)CCCCC)c1ccc(N(CC)CC)cc1 [Compound 53, N,N′-((4-(diethylamino)phenyl)methylene)dihexanamide]	
>43	0.462	Cc1ccc(C(NC(=O)Cc2ccc(Cl)cc2)NC(=O)Cc2ccc(Cl)cc2)cc1 [Compound 25, N,N′-(p-tolylmethylene)bis(2-(4-chlorophenyl)acetamide)]	
	> 20	O=C(Cc1ccccc1)NC(Cc1ccccc1)NC(=O)Cc1ccccc1 [Compound 37, N,N′-(2-phenylethane-1,1-diyl)bis(2-phenylacetamide)]	
	5.19	CCCCCCCN(Cc1ccc(N(CC)CC)cc1)S(=O)(=O)c1ccc(OC)cc1 [Compound 70, N-(4-(Diethylamino)benzyl)-N-heptyl-4-methoxybenzenesulfonamide]	
	> 20	O=C(Cc1ccc(Cl)cc1)NC(NC(=O)Cc1ccc(Cl)cc1)c1ccccc1 [Compound 21, N,N′-(phenylmethylene)bis(2-(4-chlorophenyl)acetamide)]	
	0.273	CCCCCCCN(Cc1ccc(N(CC)CC)cc1)S(=O)(=O)Cc1ccccc1 [Compound 74, N-(4-(Diethylamino)benzyl)-N-heptyl-1-phenylmethanesulfonamide]	
	> 20	O=C(Cc1ccc(C(F)(F)F)cc1)NC(NC(=O)Cc1ccc(C(F)(F)F)cc1)c1ccccc1F [Compound 31, N,N′-((2-fluorophenyl)methylene)bis(2-(4-(trifluoromethyl)phenyl)acetamide)]	
	11.8	O=C(Cc1ccccc1)NC(NC(=O)Cc1ccccc1)c1ccccc1C(F)(F)F [Compound 13, N,N′-((2-(trifluoromethyl)phenyl)methylene)bis(2-phenylacetamide)]	
	> 20	O=C(Cc1ccccc1)NC(NC(=O)Cc1ccccc1)c1ccc([N+](=O)[O-])cc1 [Compound 15, N,N′-((4-nitrophenyl)methylene)bis(2-phenylacetamide)]	
	0.0054	CCN(CC)c1ccc(CN(c2ccc(C)cc2)S(=O)(=O)c2ccc(C)cc2)cc1 [Compound 94, N-(4-(Diethylamino)benzyl)-4-methyl-N-(p-tolyl)benzenesulfonamide]	
>34	0.596	O=C(Cc1ccccc1)NC(NC(=O)Cc1ccccc1)c1ccc(C(F)(F)F)cc1 [Compound 14, N,N′-((4-(trifluoromethyl)phenyl)methylene)bis(2-phenylacetamide)]	
>127	0.158	O=C(Cc1ccc(Cl)cc1)NC(NC(=O)Cc1ccc(Cl)cc1)c1ccccc1C(F)(F)F [Compound 27, N,N′-((2-(trifluoromethyl)phenyl)methylene)bis(2-(4-chlorophenyl)acetamide)]	
	1.31	CCCCCCCN(Cc1ccc(N(CC)CC)cc1)C(=O)Cc1ccccc1 [Compound 76, N-(4-(Diethylamino)benzyl)-N-heptyl-2-phenylacetamide]	
	6.74	CCCCCCCN(Cc1ccc(N(CC)CC)cc1)S(=O)(=O)c1ccc(Cl)cc1 [Compound 73, 4-Chloro-N-(4-(diethylamino)benzyl)-N-heptylbenzenesulfonamide]	

SMILES	SI: selectivity index for CB2	Ki [1] [µM]	Ki [µM]
O=C(Cc1ccccc1)NC(NC(=O)Cc1ccccc1)c1cccc(F)c1 [Compound 4, N,N′-((3-fluorophenyl)methylene)bis(2-phenylacetamide)]		12.7	
O=C(Cc1ccc(Cl)cc1)NC(NC(=O)Cc1ccc(Cl)cc1)c1ccc(C(F)(F)F)cc1 [Compound 28, N,N′-((4-(trifluoromethyl)phenyl)methylene)bis(2-(4-chlorophenyl)acetamide)]	>198	0.101	
CCOc1ccc(C(NC(=O)Cc2ccccc2)NC(=O)Cc2ccccc2)cc1 [Compound 11, N,N′-((4-ethoxyphenyl)methylene)bis(2-phenylacetamide)]		1.5	
O=C(Cc1ccccc1)NC(NC(=O)Cc1ccccc1)c1ccccc1 [Compound 2, N,N′-(phenylmethylene)bis(2-phenylacetamide)]		9.93	
O=C(Cc1ccccc1)NC(NC(=O)Cc1ccccc1)c1ccc(Br)cc1 [Compound 7, N,N′-((4-bromophenyl)methylene)bis(2-phenylacetamide)]		2.23	
CCCCCCCN(Cc1ccc(N(CC)CC)cc1)S(=O)(=O)CCCC [Compound 75, N-(4-(Diethylamino)benzyl)-N-heptylbutane-1-sulfonamide]		0.68	
O=C(Cc1ccc(C(F)(F)F)cc1)NC(NC(=O)Cc1ccc(C(F)(F)F)cc1)c1ccc(C(F)(F)F)cc1 [Compound 36]		> 20	
O=C(Cc1ccccc1)NC(NC(=O)Cc1ccccc1)c1ccc(F)cc1 [Compound 5, N,N′-((4-fluorophenyl)methylene)bis(2-phenylacetamide)]		10.9	
CCCCCCCN(Cc1ccc(N(CC)CC)cc1)C(=O)Cc1ccc(Cl)cc1 [Compound 77, 2-(4-Chlorophenyl)-N-(4-(diethylamino)benzyl)-N-heptylacetamide]		0.696	
